The numbers were not newly measured in patent publication US12678479B2, “Pharmaceutical compositions comprising teixobactin” (priority 2018, dated 2026), which cites them from elsewhere.

This data set relates to MRSA ATCC 33591. To be noted: comparison value.

For the compound `CN[C@H](CC(C)C)C(=O)N[C@H]1C(=O)N[C@@H](CC(N)=O)C(=O)N[C@H]2C(=O)N[C@H]3C(=O)N[C@H](C(=O)N[C@H](C(=O)O)c4cc(O)cc(O)c4-c4cc3ccc4O)[C@H](O[C@H]3C[C@](C)(N)[C@@H](O)[C@H](C)O3)c3ccc(c(Cl)c3)Oc3cc2cc(c3O[C@@H]2O[C@H](CO)[C@@H](O)[C@H](O)[C@H]2O[C@H]2C[C@](C)(NCc3ccc(-c4ccc(Cl)cc4)cc3)[C@@H](O)[C@H](C)O2)Oc2ccc(cc2Cl)[C@H]1O` [Orbactiv, oritavancin], the effective dose is 4 to 5 mg/kg.
